What all share (assay): HIV-1 RT Assay
For experiment [1], the target named is T1, Gag-Pol polyprotein [588-1027,K690N]/[588-1147,K690N] (Human immunodeficiency virus 1, UniProt P04585, K690N).
T1 construct: 588-1027; 588-1147
From the text: (§1) The IC50 of reverse transcriptase is the concentration that inhibits 50% of recombinant HIV-1 RT RNA-directed DNA polymerase activity in vitro.

Experiment [2] addresses T2, Gag-Pol polyprotein [588-1127,Y768C]/[588-1147,Y768C] (Human immunodeficiency virus 1, UniProt P04585, Y768C).
T2 construct: 588-1127; 588-1147
From the text: as §1

The target of experiment [3] is T3, Gag-Pol polyprotein [588-1027]/[588-1147] (Human immunodeficiency virus 1, UniProt P04585).
T3 construct: 588-1027; 588-1147
From the text: as §1

With `CC(C)c1s/c(=N\S(=O)(=O)c2cc(Cl)ccc2C#N)n(C)c1Cl` [5-Chloro-N-(4-chloro-5-isopropyl-3-methyl-1,3-thiazol-2(3H)-ylidene)-2-cyanobenzenesulfonamide], the IC50 in experiment [1] came out at 3.7 µM; in experiment [2], 0.091 µM; in experiment [3] it was 0.009 µM.

As to `CC(C)c1s/c(=N\S(=O)(=O)c2cc(Cl)ccc2O)n(C)c1Cl` [5-chloro-N-[(2Z)-4-chloro-3-methyl-5-(propan-2-yl)-2,3-dihydro-1,3-thiazol-2-ylidene]-2-hydroxybenzene-1-sulfonamide], the IC50 in experiment [1] was found to be 0.17 µM; in experiment [2], 0.021 µM; in experiment [3], 0.0094 µM.

Turning to `COC(=O)c1ccc(Cl)cc1S(=O)(=O)/N=c1\sc(C(C)(C)C)c(C)n1C` [methyl 2-{[(2Z)-5-tert-butyl-3,4-dimethyl-2,3-dihydro-1,3-thiazol-2-ylidene]sulfamoyl}-4-chlorobenzoate], the IC50 is > 10 µM in experiment [1], 10 µM in experiment [2] and > 10 µM in experiment [3].

As for `COc1cccc(S(=O)(=O)/N=c2\sc(C(C)(C)C)c(C)n2C)c1` [N-[(2Z)-5-tert-butyl-3,4-dimethyl-2,3-dihydro-1,3-thiazol-2-ylidene]-3-methoxybenzene-1-sulfonamide], the concentration for half-maximal inhibition (IC50) in experiment [1] is > 50 µM; in experiment [3], 8.8 µM.

As for `Cc1c(C(C)(C)C)s/c(=N\S(=O)(=O)c2cc(Cl)ccc2O)n1C` [N-(5-tert-Butyl-3,4-dimethyl-1,3-thiazol-2(3H)-ylidene)-5-chloro-2-hydroxybenzenesulfonamide], the IC50 in experiment [1] was 1.1 µM; in experiment [2] it was 0.011 µM; in experiment [3], 0.032 µM.

In the case of `Cc1c(C(C)(C)C)s/c(=N\S(=O)(=O)c2ccc(O)cc2)n1C` [N-(5-tert-Butyl-3,4-dimethyl-1,3-thiazol-2(3H)-ylidene)-4-hydroxybenzenesulfonamide], the 50% inhibitory concentration (IC50) in experiment [1], in experiment [2] and in experiment [3] was > 10 µM throughout.

Consider `Cc1c(C(C)C)s/c(=N\S(=O)(=O)c2cc(C#N)ccc2C#N)n1C` [thiazolidenebenzenesulfonamide deriv.], for which the IC50 in experiment [1] came to 4.1 µM; in experiment [2], 0.47 µM; in experiment [3], 0.012 µM.

Take `COc1ccccc1S(=O)(=O)/N=c1\sc(C(C)(C)C)c(C)n1C` [N-(5-tert-Butyl-3,4-dimethyl-1,3-thiazol-2(3H)-ylidene)-2-methoxybenzenesulfonamide]: the IC50 was > 50 µM in experiment [1] (pH 8.4, 37 °C) and 50 µM in experiment [3] (pH 8.4, 37 °C).

Regarding `Cc1c(C(C)(C)C)s/c(=N\S(=O)(=O)c2ccc(Cl)cc2)n1C` [N-(5-tert-Butyl-3,4-dimethyl-1,3-thiazol-2(3H)-ylidene)-4-chlorobenzenesulfonamide], the IC50 in experiment [1] (pH 8.4, 37 °C) was > 10 µM; in experiment [2] (pH 8.4, 37 °C), > 10 µM; in experiment [3] (pH 8.4, 37 °C), > 10 µM.

Turning to `Cc1c(C(C)C)s/c(=N\S(=O)(=O)c2cc(F)ccc2C#N)n1C` [2-cyano-N-[(2Z)-3,4-dimethyl-5-(propan-2-yl)-2,3-dihydro-1,3-thiazol-2-ylidene]-5-fluorobenzene-1-sulfonamide], the half-maximal inhibitory concentration (IC50) is > 10 µM in experiment [1], 2.1 µM in experiment [2] and 0.092 µM in experiment [3].

Regarding `Cc1c(C(C)(C)C)s/c(=N\S(=O)(=O)c2cc(Cl)ccc2C(N)=O)n1C` [2-{[(5-tert-Butyl-3,4-dimethyl-1,3-thiazol-2(3H)-ylidene)amino]sulfonyl}-4-chlorobenzamide], the IC50 in experiment [1], in experiment [2] and in experiment [3] was > 10 µM each time.

In the case of `Cc1c(C(C)(C)C)s/c(=N\S(=O)(=O)c2cccc(Cl)c2O)n1C` [N-[(2Z)-5-tert-butyl-3,4-dimethyl-2,3-dihydro-1,3-thiazol-2-ylidene]-3-chloro-2-hydroxybenzene-1-sulfonamide], the IC50 in experiment [1] is > 50 µM; in experiment [3], 6.3 µM.

Take `Cc1c(C(C)(C)C)s/c(=N\S(=O)(=O)c2ccccc2O)n1C` [N-[(2Z)-5-tert-butyl-3,4-dimethyl-2,3-dihydro-1,3-thiazol-2-ylidene]-2-hydroxybenzene-1-sulfonamide]: the IC50 in experiment [1] was 30 µM; in experiment [2], 0.41 µM; in experiment [3], 1.6 µM.

Take `Cc1c(C(C)C)s/c(=N\S(=O)(=O)c2cc(Cl)ccc2C#N)n1C` [5-chloro-2-cyano-N-[(2Z)-3,4-dimethyl-5-(propan-2-yl)-2,3-dihydro-1,3-thiazol-2-ylidene]benzene-1-sulfonamide]: the IC50 in experiment [1] is 5.9 µM; in experiment [2], 0.2 µM; in experiment [3] it was 0.011 µM.

Take `Cc1c(C(C)(C)C)s/c(=N\S(=O)(=O)c2ccccc2)n1C`: the IC50 in experiment [1] was > 50 µM; in experiment [2] it was 5.1 µM; in experiment [3], 4.9 µM.

With `Cc1c(C(C)(C)C)s/c(=N\S(=O)(=O)c2cc(Cl)ccc2NS(C)(=O)=O)n1C` [N-[(2Z)-5-tert-butyl-3,4-dimethyl-2,3-dihydro-1,3-thiazol-2-ylidene]-5-chloro-2-methanesulfonamidobenzene-1-sulfonamide], the IC50 in experiment [1], in experiment [2] and in experiment [3] was > 50 µM in each case.

For the compound `COc1ccc(S(=O)(=O)/N=c2\sc(C(C)(C)C)c(C)n2C)cc1` [N-(5-tert-Butyl-3,4-dimethyl-1,3-thiazol-2(3H)-ylidene)-4-methoxybenzenesulfonamide], the IC50 in experiment [1], in experiment [2] and in experiment [3] was > 10 µM throughout.

With `Cc1c(C(C)C)s/c(=N\S(=O)(=O)c2cc(Br)ccc2C#N)n1C` [5-Bromo-2-cyano-N-(5-isopropyl-3,4-dimethyl-1,3-thiazol-2(3H)-ylidene)benzenesulfonamide], the IC50 in experiment [1] was 3.9 µM; in experiment [2], 0.26 µM; in experiment [3], 0.018 µM.

Take `Cc1c(C(C)(C)C)s/c(=N\S(=O)(=O)c2cccc(O)c2)n1C` [N-[(2Z)-5-tert-butyl-3,4-dimethyl-2,3-dihydro-1,3-thiazol-2-ylidene]-3-hydroxybenzene-1-sulfonamide]: the IC50 is > 50 µM in experiment [1], 14 µM in experiment [2] and 8.8 µM in experiment [3].

On to `Cc1c(C(C)(C)C)s/c(=N\S(=O)(=O)c2cc(Cl)ccc2C#N)n1C` [N-(5-tert-Butyl-3,4-dimethyl-1,3-thiazol-2(3H)-ylidene)-5-chloro-2-cyanobenzenesulfonamide], for which the results for the IC50 in experiment [1], in experiment [2] and in experiment [3] were > 50 µM, 0.069 µM and 0.18 µM, respectively.

With `Cc1c(C(C)(C)C)s/c(=N\S(=O)(=O)c2ccccc2[N+](=O)[O-])n1C` [N-[(2Z)-5-tert-butyl-3,4-dimethyl-2,3-dihydro-1,3-thiazol-2-ylidene]-2-nitrobenzene-1-sulfonamide], the half-inhibitory concentration (IC50) in experiment [1] (pH 8.4, 37 °C) was > 50 µM; in experiment [2] (pH 8.4, 37 °C) it was 36 µM; in experiment [3] (pH 8.4, 37 °C), > 50 µM.

For the compound `Cc1c(C(C)(C)C)s/c(=N\S(=O)(=O)c2ccccc2Cl)n1C` [N-[(2Z)-5-tert-butyl-3,4-dimethyl-2,3-dihydro-1,3-thiazol-2-ylidene]-2-chlorobenzene-1-sulfonamide], the IC50 in experiment [1] (pH 8.4, 37 °C) is > 10 µM; in experiment [2] (pH 8.4, 37 °C), > 10 µM; in experiment [3] (pH 8.4, 37 °C) it was > 10 µM.

For `Cc1c(C(C)(C)C)s/c(=N\S(=O)(=O)c2cccc(Cl)c2)n1C` [N-[(2Z)-5-tert-butyl-3,4-dimethyl-2,3-dihydro-1,3-thiazol-2-ylidene]-3-chlorobenzene-1-sulfonamide], the IC50 in experiment [1] (pH 8.4, 37 °C) came to 11 µM; in experiment [2] (pH 8.4, 37 °C) it was 0.044 µM; in experiment [3] (pH 8.4, 37 °C) it was 0.3 µM.

Regarding `Cc1c(C(C)(C)C)s/c(=N\S(=O)(=O)c2cc(Cl)ccc2[N+](=O)[O-])n1C` [N-[(2Z)-5-tert-butyl-3,4-dimethyl-2,3-dihydro-1,3-thiazol-2-ylidene]-5-chloro-2-nitrobenzene-1-sulfonamide], the results for the IC50 in experiment [1] and in experiment [3] were > 50 µM and 2.4 µM, respectively.

As for `CC(C)c1s/c(=N\S(=O)(=O)c2cc(C#N)ccc2C#N)n(C)c1Cl` [N-(4-Chloro-5-isopropyl-3-methyl-1,3-thiazol-2(3H)-ylidene)-2,5-dicyanobenzenesulfonamide], the IC50 in experiment [1] was found to be 3 µM; in experiment [2], 0.21 µM; in experiment [3], 0.0095 µM.

`CC(C)c1s/c(=N\S(=O)(=O)c2cc(Br)ccc2O)n(C)c1Cl` [5-bromo-N-[(2Z)-4-chloro-3-methyl-5-(propan-2-yl)-2,3-dihydro-1,3-thiazol-2-ylidene]-2-hydroxybenzene-1-sulfonamide]: the IC50 was 0.043 µM in experiment [1], 0.013 µM in experiment [2] and 0.0043 µM in experiment [3].

As to `Cc1c(C(C)(C)C)s/c(=N\S(=O)(=O)c2ccc([N+](=O)[O-])cc2)n1C` [N-(5-tert-Butyl-3,4-dimethyl-1,3-thiazol-2(3H)-ylidene)-4-nitrobenzenesulfonamide], the IC50 in experiment [1] (pH 8.4, 37 °C) is > 10 µM; in experiment [2] (pH 8.4, 37 °C), > 10 µM; in experiment [3] (pH 8.4, 37 °C), > 10 µM.

Turning to `CC(=O)Nc1ccc(Cl)cc1S(=O)(=O)/N=c1\sc(C(C)(C)C)c(C)n1C` [N-(2-{[(5-tert-Butyl-3,4-dimethyl-1,3-thiazol-2(3H)-ylidene)amino]sulfonyl}-4-chlorophenyl)acetamide], the IC50 in experiment [1], in experiment [2] and in experiment [3] was > 50 µM each time.

With `Cc1c(C(C)(C)C)s/c(=N\S(=O)(=O)c2cc(Cl)ccc2N)n1C` [2-amino-N-[(2Z)-5-tert-butyl-3,4-dimethyl-2,3-dihydro-1,3-thiazol-2-ylidene]-5-chlorobenzene-1-sulfonamide], the IC50 in experiment [1] was found to be 17 µM; in experiment [2], 0.11 µM; in experiment [3], 0.19 µM.

For orientation: IC50 means the concentration needed to halve the response being measured. A higher IC50 goes with lower potency.
